In US7067520B2, “Preventive or therapeutic medicines for diabetes containing fused-heterocyclic compounds or their salts” (Ishihara Sangyo Kaisha, Ltd., priority 2000, dated 2006):

Legend:
L6 cells = experiment: Glucose uptake test by L6 cells; format: cell-based; conditions: Rattus norvegicus, 1 hour, 2-deoxy-[3H]-glucose uptake, control (MEM solvent alone) = 100%, read-out: Ratio activity (%); for activity at 10 µg/mL: treatment concentration 10 μg/ml; for activity at 100 µg/mL: treatment concentration 100 μg/ml
Experimental: Glucose Uptake Test by L6 Cells
Each of compounds under test was applied to L6 cells (rat cells originally derived from skeletal muscles) by the following method to measure the stimulating effect on glucose uptake. Namely, L6 cells were suspended in α-minimum essential medium (hereinafter referred to simply as MEM) containing 10% fetal bovine serum (hereinafter referred to simply as FBS), and inoculated into a 96-well plastic plate in an amount of 5×10^4 cells/well and cultivated in an incubator (5% carbon dioxide gas, 37° C.) until the cells grew all over the well. Then, the culture medium was switched to MEM solution containing 2% BS, followed by cultivation further for from 7 to 10 ays (the culture medium was exchanged every three days) to differentiate the cells into skeletal muscle cells. Then, the culture medium was replaced with MEM solution without FBS, followed by cultivation for three hours, and then the compound under test prepared to a treatment concentration (diluted with MEM solution without FBS) was reacted with the skeletal muscle cells at 37° C. for 1 hour. The cells were washed with Krebs-Henseleit-Ringer buffer solution (hereinafter referred to simply as KHR buffer solution), and 2-deoxy-[^3H]-glucose was added to the cells in the KHR buffer solution, followed by treatment at 37° C. for 10 minutes. The treatment solution was removed, the cells were washed with the KHR buffer solution, then the cells were dissolved in a 1N sodium hydroxide solution in an appropriate amount, and the [^3H] radio activity was measured by means of a liquid scintillation counter (cpm) The percentage of the glucose uptake was represented by the percentage of radio activity when the compound under test was applied, taking the radio activity of the control (the MEM solvent alone was applied) as 100%. Each of the compounds as identified in Table 27 was used for treatment at a concentration of each of 10 μg/ml and 100 μg/ml to examine the stimulating effect on glucose uptake.

KK-Ay/Ta mice = experiment: Test for hypoglycemic effect in KK-Ay/Ta mice; format: in vivo; conditions: after 3 hours; 50 mg/kg single oral dose; percentage to level before administration; significant vs vehicle control (P≦0.05)
Experimental: Using KK-Ay/Ta mice (purchased from CLEA Japan, Inc.) as spontaneous diabetic type II, the hypoglycemic effect of each of compounds under test was confirmed by the following method.
Male KK-Ay/Ta mice sufficiently preliminarily bred and acclimatized were classified into groups, each consisting of six mice, and each of the compounds under test was administered. Each of the compounds under test as suspended in 0.5% carboxymethyl cellulose (manufactured by Nacalai Tesque), and each compound was orally administered singly in a dose of 50 mg/kg (10 ml/kg) by means of an oral conductor. At the same time, as a group of vehicle control, 0.5% carboxymethyl cellulose was administered in the same volume (10 ml/kg) as for the group of administration of compound under test.
Collection of blood was carried out by the following method before the administration of each of the compounds under test or the vehicle, and at the time as identified in Table 28 after the administration. The tail vein of each mouse was shallowly cut by the edge of a razor to cause bleeding in an amount of blood of from 10 to 20 μL, and the blood was collected by a micropipet. The collected blood samples were immediately mixed with a heparin solution (20 U/ml) (manufactured by Mochida Yakuhin) in the same amount as the respective collected blood samples, and subjected to centrifugation at 4° C. for 5 minutes (10,000 rpm) by means of a cooling centrifugal machine. The plasma after the centrifugation was obtained as a sample for blood glucose level measurement.
The blood glucose level was measured by means of glucose oxidase method, and measured by using a commercially available assay kit (Glucose CII TEST WAKO, manufactured by Wako Pure Chemical Industries, Ltd.). Measurement was carried out on the day after the collection of blood, and the obtained plasma was stored at −20° C. before the measurement.
The blood glucose level at the time of collection of blood was calculated as the percentage to the blood glucose level before administration of the compound under test, and the hypoglycemic effect of the compound under test was evaluated by comparison with the change of the blood glucose level (percentage) of the group of vehicle control at the time of collection of blood. The evaluation results of the hypoglycemic effect are considered to have a significant difference compared with the vehicle control by means of Wilcoxon's rank sum test (P≦0.05)

melting point [°C]	Compound	activity at 10 µg/mL (L6 cells) [%]	activity at 100 µg/mL (L6 cells) [%]	Rate of change of blood glucose level (KK-Ay/Ta mice) [%]
235 to 238	CSc1nc2cc(C)nn2c(Nc2cccc(C#N)c2)c1C#N [compound 186]	> 115	> 115	80
> 270	CSc1nc2ccnn2c(Nc2ccc([N+](=O)[O-])cc2)c1C#N [compound 200]	> 115	> 115	79
